# Test results: patent publication US5635391A, “Isolated DNA encoding a nitrilase polypeptide, hosts containing, and expression thereof optionally assisted by a E. coli GroE chaperone polypeptide” (priority 1992, dated 1997)
# Columns and labels:
# [1] = target: T1, purified nitrilase (Comamonas testosteroni, UniProt Q59329); experiment: Activity of the purified nitrilase as a function of the pH; format: biochemical, Comamonas testosteroni sp.; conditions: substrate 10 mM, 25° C., U = μmol of cyanovalerate formed/h
# T1 construct: about 280 kDa oligomer of about 38 kDa subunits
# Experimental: The purified nitrilase was tested at different pH values on two substrates, adiponitrile and 5-cyanovalerate, under the conditions indicated in Table 2 below.
# COMMON CONDITIONS: [substrate]=10 mM; buffer 10 mM; T 25° C.; [nitrilase]=12 μg/ml for cyanovalerate and 3 μg/ml for adiponitrile (fraction, step 6); U (adiponitrile)=μmol of cyanovalerate formed/h, U (cyanovalerate)=μmol of adipate formed/h.
# [2] = target: T1, purified nitrilase; experiment: Relative activity of the purified nitrilase on various nitriles; format: biochemical, Comamonas testosteroni sp.; conditions: acetate buffer 10 mM, pH 4; substrate 10 mM; 25° C.
# Experimental: The activities of the purified nitrilase were measured on adiponitrile, 5-cyanovaleramide, 5-cyanovaleric acid, benzonitrile, propionitrile and acrylonitrile.
# COMMON CONDITIONS: acetate buffer=10 mM, pH 4; substrate=10 mM; volume=3 ml; T=25° C.; reaction time=1 or 3 h; proteins: from 5 to 30 μg/ml.
# [3] = tested on: E. coli TG1; experiment: Nitrilase activity of control strain E. coli TG1; format: cell-based; conditions: no IPTG, whole cells, DW 15.5 g/l, 1 ml, substrate 50 mM, 25° C.
# Experimental: (§1) The activities of these strains, induced or non-induced, are measured on adiponitrile and 5-cyanovalerate at different pH values and are compared with the negative control strains: E. coli TG1, E. coli TG1 (pXL2035) and Pseudomonas putida G2081.
# (§2) The cultures are carried out under the conditions described in Table 4. During the exponential growth phase, one of the two cultures of the recombinant strain is induced with 1 mM IPTG; after 2 h at 37° C., this culture is treated.
# (§3) The conditions of the specific activity measurements and the results are collated in Table 5.
# (§4) COMMON CONDITIONS: [substrate]=50 mM; T=25° C.; buffer 50 mM; kinetics over 90 min for 1 to 3 and over 120 min for 4 to 8.
# (§5) ABBREVIATIONS: W=whole cells; S=sonicated cells; Ua=μmols of cyanovalerate produced/h; Ub=μmols of adipate produced/h; AdN=adiponitrile; CVA=5-cyanovalerate. DW=dry weight.
# [4] = tested on: E. coli TG1 pXL2087; experiment: Nitrilase activity of recombinant strain E. coli TG1 pXL2087; format: cell-based; conditions: substrate 50 mM; for Activity Ua: DW 0.3 g/l, pH 4.2
# Experimental: as §1, §2, §3, §4, §5
# [5] = tested on: E. coli TG1 pXL2035; experiment: Nitrilase activity of control strain E. coli TG1 pXL2035; format: cell-based; conditions: no IPTG; whole cells; DW 0.06 g/l; 1 ml; pH 7.0; substrate 50 mM
# Experimental: as §1, §2, §3, §4, §5
# [6] = tested on: E. coli TG1 pXL2158; experiment: Nitrilase activity of recombinant strain E. coli TG1 pXL2158; format: cell-based; conditions: no IPTG; whole cells; DW 0.24 g/l; 1 ml; pH 7.0; substrate 50 mM
# Experimental: as §1, §2, §3, §4, §5
# [7] = tested on: E. coli TG1 pXL2035,2158; experiment: Nitrilase activity of recombinant strain E. coli TG1 pXL2035,2158; format: cell-based; conditions: no IPTG; whole cells; DW 0.06 g/l; 1 ml; pH 7.0; substrate 50 mM
# Experimental: as §1, §2, §3, §4, §5
# [8] = tested on: P. putida G2081 pDSK519; experiment: Nitrilase activity of control strain P. putida G2081 pDSK519; format: cell-based, Pseudomonas putida; conditions: no IPTG; whole cells; DW 0.3 g/l; 1 ml; pH 7.0; substrate 50 mM
# Experimental: as §1, §2, §3, §4, §5
# [9] = tested on: E. coli (pXL2087); experiment: Batch hydrolysis of adiponitrile with E. coli (pXL2087) in suspension; format: cell-based; conditions: pH 7, 25° C., cells 21 g/l
# Experimental: 120 μl or 1068 μmol of adiponitrile were added at 25° C. and with magnetic stirring, at the reaction times 0, 1, 2, 3, 5, 6 and 7 h, to an initial volume of 5 ml of 50 mM phosphate buffer, pH 7, containing the strain E. coli (pXL2087) at an initial concentration of 21 g/l. The reaction was monitored analytically by taking 100 μl samples of the reaction volume every hour.
# The mean activities calculated over 30 min after addition of the adiponitrile are collated in Table 6 below.
# [10] = tested on: E. coli (pXL2087); experiment: Activity of immobilized and free E. coli (pXL2087) cells on adiponitrile; format: cell-based; conditions: 25° C., pH 7, 50 mM adiponitrile
# Experimental: The cells were fixed according to the following protocol:
# The gram of cells was suspended in the polyazetidine solution. After homogenization, the resin was poured into the cell suspension. The whole was stirred with a spatula and then left to dry for 18 h, open to the air, under a hood. 4 ml or 1.3 g of biocatalyst were thus collected. The activities of the immobilized and free cells were determined at 25° C. and pH 7 on a 50 mM solution of adiponitrile. They are respectively 30 and 110 μmol of […]/h/mg of cells DW, from which a fixing yield of 26% is deduced.
# [11] = tested on: E. coli (pXL2087) immobilized on resin; experiment: Hydrolysis of adiponitrile in a fixed bed reactor with immobilized E. coli (pXL2087); format: cell-based; conditions: 28° C., adiponitrile 50 mM, pH 7, flow rate 3.7 ml/h
# Experimental: The half-life is determined in a continuously fed fixed bed reactor under the conditions indicated below:
# T 28° C.; catalyst 0.5 g or 2 ml or 85 mg of cells (dry weight); [adiponitrile] 50 mM; phosphate buffer 50 mM, pH 7; flow rate 3.7±0.1 ml/h; column: diameter 1 cm, height 3 cm.
# The initial activity of the cells was 1.5 μmol of adipate/h/mg of cells (dry weight). 66% of the initial activity is preserved after 32 days or 770 h.
# T1 sequence (Q59329 entry or part of it): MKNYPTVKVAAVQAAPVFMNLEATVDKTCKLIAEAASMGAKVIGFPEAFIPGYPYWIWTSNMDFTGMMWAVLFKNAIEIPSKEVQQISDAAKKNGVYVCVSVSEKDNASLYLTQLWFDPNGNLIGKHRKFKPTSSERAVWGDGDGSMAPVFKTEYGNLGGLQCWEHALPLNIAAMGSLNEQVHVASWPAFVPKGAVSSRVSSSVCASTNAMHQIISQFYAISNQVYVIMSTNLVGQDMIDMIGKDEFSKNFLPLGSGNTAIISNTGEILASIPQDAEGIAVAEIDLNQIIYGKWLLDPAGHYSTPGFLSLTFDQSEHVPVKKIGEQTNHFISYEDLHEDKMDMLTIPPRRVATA
compound,measurement,setting,value
"N#CCCCCC#N [Adiponitrile, adiponitrile]",SPECIFIC ACTIVITY,[1]; Acetate pH 3.0,"2,300 U/mg of protein"
same,SPECIFIC ACTIVITY,[1]; Acetate pH 4.0,"2,900 U/mg of protein"
same,SPECIFIC ACTIVITY,[1]; Acetate pH 4.5,"2,800 U/mg of protein"
same,SPECIFIC ACTIVITY,[1]; Acetate pH 5.0,"2,700 U/mg of protein"
same,SPECIFIC ACTIVITY,[1]; Phosphate pH 6.0,"2,900 U/mg of protein"
same,SPECIFIC ACTIVITY,[1]; Phosphate pH 7.0,"2,700 U/mg of protein"
same,SPECIFIC ACTIVITY,[1]; Phosphate pH 8.0,"2,800 U/mg of protein"
same,RELATIVE ACTIVITY,[2],100%
same,Activity Ub,[3]; pH 5.2,0 μmols of adipate produced/h
same,Activity Ub,[3]; pH 7.0,0 μmols of adipate produced/h
same,Activity Ub,"[4]; +IPTG, sonicated cells, DW 1.4 g/l, 2 ml, pH 6.2",17 μmols of adipate produced/h
same,Activity Ub,"[4]; +IPTG, sonicated cells, DW 1.4 g/l, 2 ml, pH 7.0",10 μmols of adipate produced/h
same,Activity Ua,"[4]; +IPTG, whole cells, 1 ml",159 μmols of cyanovalerate produce
same,Activity Ub,"[4]; +IPTG, whole cells, DW 1.4 g/l, 1 ml, pH 4.3",38 μmols of adipate produced/h
same,Activity Ub,"[4]; +IPTG, whole cells, DW 1.4 g/l, 2 ml, pH 6.2",18 μmols of adipate produced/h
same,Activity Ub,"[4]; +IPTG, whole cells, DW 1.4 g/l, 2 ml, pH 7.0",11 μmols of adipate produced/h
same,Activity Ub,"[4]; no IPTG, sonicated cells, DW 1.0 g/l, 1 ml, pH 6.2",3 μmols of adipate produced/h
same,Activity Ub,"[4]; no IPTG, sonicated cells, DW 1.0 g/l, 1 ml, pH 7.0",4 μmols of adipate produced/h
same,Activity Ua,"[4]; no IPTG, whole cells, 1 ml",75 μmols of cyanovalerate produce
same,Activity Ub,"[4]; no IPTG, whole cells, DW 1.2 g/l, 2 ml, pH 4.3",16 μmols of adipate produced/h
same,Activity Ub,"[4]; no IPTG, whole cells, DW 1.2 g/l, 2 ml, pH 6.2",11 μmols of adipate produced/h
same,Activity Ub,"[4]; no IPTG, whole cells, DW 1.2 g/l, 2 ml, pH 7.0",3.4 μmols of adipate produced/h
same,Activity Ua,[5],0 μmols of cyanovalerate produce
same,Activity Ub,[5],0 μmols of adipate produced/h
same,Activity Ua,[6],270 μmols of cyanovalerate produce
same,Activity Ua,[7],1500 μmols of cyanovalerate produce
same,Activity Ua,[8],0 μmols of cyanovalerate produce
same,SPECIFIC ACTIVITY (mean over 30 min after addition of adiponitrile),[9]; reaction time 0.5 h,16 μmol of adipate/h x mg of dry cells
same,SPECIFIC ACTIVITY (mean over 30 min after addition of adiponitrile),[9]; reaction time 2.5 h,15 μmol of adipate/h x mg of dry cells
same,SPECIFIC ACTIVITY (mean over 30 min after addition of adiponitrile),[9]; reaction time 5.5 h,11 μmol of adipate/h x mg of dry cells
same,SPECIFIC ACTIVITY (mean over 30 min after addition of adiponitrile),[9]; reaction time 6.5 h,11 μmol of adipate/h x mg of dry cells
same,SPECIFIC ACTIVITY (mean over 30 min after addition of adiponitrile),[9]; reaction time 7.7 h,15 μmol of adipate/h x mg of dry cells
same,activity of the free cells,[10],110 μmol of 2-cyanovalerate/h/mg of cells DW
same,activity of the immobilized cells,[10],30 μmol of 2-cyanovalerate/h/mg of cells DW
same,initial activity of the cells,[11],1.5 μmol of adipate/h/mg of cells (dry weight)
